Molecules are shown by their SMILES.

For test [1], the system named is cathelicidin. As to the kind of experiment: Cathelicidin protein immunostaining in NHEK. The conditions noted are these: butyrate (2 mM) and 1,25D3 (10^−8M), 24 hours. The class given is cell-based, human. As for the experimental part:
Panel a: NHEKs were stimulated with 1,25D3 (10^−9-10^−7 M) in the presence of the HDAC inhibitor butyrate (BUT; 2 mM) for 24 hours. mRNA abundance was determined by real-time qPCR for cathelicidin and glyceraldehyde-3-phosphate dehydrogenase and normalized to vehicle-treated controls. […] Data shown are means (7SD) of the results from a single stimulation experiment performed in triplicates and are representative of at least three independent experiments (**P<0.01; ***P<0.001; two-way analysis of variance). Panel b: The HDAC inhibitor TSA (200 ng ml^−1) induces cathelicidin in the presence of 1,25D3 (10^−8M). Expression of cathelicidin is dependent on a functional VDR, as pretreatment with the VDR antagonist ZK159222 (10^−7 M) inhibits induction of cathelicidin with BUT (2 mM) in the presence of 1,25D3 (10^−8 M) after 24 hours. Expression of cathelicidin was determined by qPCR as described in Panel a. (*P<0.05; Student's t-test). […] Cells were stained with a polyclonal anti-LL-37 antibody (followed by an FITC-coupled secondary antibody) and nuclei detected with 4,6-diamidino-2-phenylindole (Bar=30 μM). […] NHEKs were stimulated with 1,25D3 (10^−8M) in combination with the HDAC inhibitor BUT (2 mM) for 24 hours, cells harvested and cell lysates co-incubated with S. aureus DmprF, and bacterial growth monitored over time to determine antimicrobial activity. […]

Test [2] concerns CD14 protein. The experiment in a line: Western blot of keratinocyte extracts. Type of test: cell-based, human. As for the experimental part: Western Blot. […] After centrifugation, equal amounts of protein were mixed with loading buffer (0.25M Tris HCL, 10% SDS, 10% glycerol, 5% β-mercaptoethanol) and loaded onto a 10% Tris-Tricine gel (GeneMate, Kaysville, Utah). After separation, proteins were blotted onto a PVDF membrane (Millipore, Billerica, Mass.) and blocked in 5% milk (BioRad) in TBS 0.1% Tween20 for 1 h at RT. After washings in TBS 0.1% Tween20, membranes were stained with a rabbit polyclonal anti-CD14 (Abcam, Cambridge, Mass.) or an anti TLR2 antibody (eBioscience), washed again in TBS 0.1% Tween20 and reprobed with a HRP-coupled goat anti-rabbit antibody (DakoCytomation, Glostrup, Denmark). Stained protein was visualized using the Western Lightning® system (Perkin Elmer, Boston, Mass.).
For orientation: A western blot detects proteins with antibodies after separation by electrophoresis.

For test [3], the system named is TLR2. The experiment in a line: Topical treatment of healthy volunteers' skin, TLR2 immunostaining. The conditions noted are these: topical 1,25D3 1.0 mM once applied, 4 days, versus vehicle-treated contralateral skin. Type of test: in vivo, human. How it is done: Patients and treatments. Human skin wounds were collected following informed consent by inducing 5 mm full-thickness wounds in volunteers (n=5) under aseptic conditions with local anesthesia as described. At 24 hours after incision, 4 mm punch biopsies were taken from the site of injury and immediately fixed in formalin for immunostaining or frozen in liquid N2 for subsequent RNA isolation. Intact skin from healthy volunteers served as control (n=4). To examine the effects of topical 1,25D3, healthy skin of volunteers (n=7) was treated once topically with 1,25D3 (1.0 mM) and left under occlusion for 4 days. Vehicle treated contralateral skin served as a control. After treatment, skin biopsies were obtained from both sites, fixed in formalin 10% and embedded in paraffin for immunostaining. All treatments and sample acquisitions, including skin biopsies, were approved by the committees on investigations involving human subjects.
Immunostaining. […] Nuclei were detected with DAPI. After subsequent washings with PBS slides, were mounted in ProLong Anti-Fade reagent (Molecular Probes, Eugene, Oreg.) and evaluated with an Olympus BX41 microscope (Olympus, Melville, N.Y.). […]
NaOH, pH6.0). […] Sections were washed in PBS and detected with biotinylated secondary antibodies (Vector Laboratories, Burlingame, Calif.) and diaminobenzidine substrate (Sigma) per manufacturers' instructions.

For `C=C1/C(=C\C=C2/CCC[C@]3(C)[C@@H]([C@H](C)CCCC(C)(C)O)CC[C@@H]23)C[C@@H](O)C[C@@H]1O` [1,25D3, 1,25(OH)2 vitamin D3], in test [1], the “cathelicidin peptide expression (immunostaining)” value was “increase in cathelicidin peptide expression”. In addition, the “CD14 protein expression (Western blot)” value in test [2] (1,25D3 100 nM, monolayer keratinocyte extracts) is on record as “increases expression”; in test [2] (1,25D3 10^−8M and butyrate 2 mM, 24 hours) it was “increase in CD14 protein expression”. Moreover, the “TLR2 staining intensity in skin sections” value in test [3] is on record as “Staining intensity increased”.

These data come from US20100273748A1, “ANTIMICROBIAL THERAPY” (priority 2006, published 2010).
